# Test results reported in patent publication US20200264182A1, “METHOD FOR DETECTING PROSTATE CANCER” (J-OIL MILLS, INC., priority 2017, published 2020).
# Where no end group is shown, it is not given here.
# Key:
# [1] = FAC binding constant; conditions: at 25° C.
# Procedure, shortened: (§1)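 Values come from frontal analysis by FAC at 25° C, pairing fucose α1→6 specific lectins (PhoSL, SRL, NSL, LSL) with various sugar chains.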
# [2] = FAC binding constant (Table 5 entry); conditions: Table 5: sugar chain having no fucose; at 25° C.
# Procedure, shortened: as §1
# [3] = sugar chain having fucose other than α1→6 fucose
substance,measurement,setting,value
"PhoSL: fucose α1→6 specific lectin that can be extracted from Pholiota squarrosa, SEQ ID No. 1 (APVPVTKLVCDGDTYKCTAYLDFGDGRWVAQWDTNVFHTG; not fully specified; ends and bridges not checked)",Binding constant for sugar chain No. 728,[1]; Table 3: sugar chain having fucose other than α1→6 fucose,<1000 M⁻¹
same,Binding constant for sugar chain No. 419,[1]; [3],<1000 M⁻¹
same,Binding constant for sugar chain No. 420,[1]; [3],<1000 M⁻¹
same,Binding constant for sugar chain No. 718,[1]; [3],<1000 M⁻¹
same,Binding constant for sugar chain No. 719,[1]; [3],<1000 M⁻¹
same,Binding constant for sugar chain No. 720,[1]; [3],<1000 M⁻¹
same,Binding constant for sugar chain No. 721,[1]; [3],<1000 M⁻¹
same,Binding constant for sugar chain No. 722,[1]; [3],<1000 M⁻¹
same,Binding constant for sugar chain No. 723,[1]; [3],<1000 M⁻¹
same,Binding constant for sugar chain No. 726,[1]; [3],<1000 M⁻¹
same,Binding constant for sugar chain No. 727,[1]; [3],<1000 M⁻¹
same,Binding constant for sugar chain No. 729,[1]; [3],<1000 M⁻¹
same,Binding constant for sugar chain No. 730,[1]; [3],<1000 M⁻¹
same,Binding constant for sugar chain No. 731,[1]; [3],<1000 M⁻¹
same,Binding constant for sugar chain No. 739,[1]; [3],<1000 M⁻¹
same,Binding constant for sugar chain No. 909,[1]; [3],<1000 M⁻¹
same,Binding constant for sugar chain No. 910,[1]; [3],<1000 M⁻¹
same,Binding constant for sugar chain No. 931,[1]; [3],<1000 M⁻¹
same,Binding constant for sugar chain No. 932,[1]; [3],<1000 M⁻¹
same,Binding constant for sugar chain No. 933,[1]; [3],<1000 M⁻¹
same,Binding constant for sugar chain No. 001,[1]; sugar chain having no fucose,<1000 M⁻¹
same,Binding constant for sugar chain No. 002,[1]; sugar chain having no fucose,<1000 M⁻¹
same,Binding constant for sugar chain No. 003,[1]; sugar chain having no fucose,<1000 M⁻¹
same,Binding constant for sugar chain No. 004,[1]; sugar chain having no fucose,<1000 M⁻¹
same,Binding constant for sugar chain No. 005,[1]; sugar chain having no fucose,<1000 M⁻¹
same,Binding constant for sugar chain No. 006,[1]; sugar chain having no fucose,<1000 M⁻¹
same,Binding constant for sugar chain No. 007,[1]; sugar chain having no fucose,<1000 M⁻¹
same,Binding constant for sugar chain No. 008,[1]; sugar chain having no fucose,<1000 M⁻¹
same,Binding constant for sugar chain No. 009,[1]; sugar chain having no fucose,<1000 M⁻¹
same,Binding constant for sugar chain No. 010,[1]; sugar chain having no fucose,<1000 M⁻¹
same,Binding constant for sugar chain No. 011,[1]; sugar chain having no fucose,<1000 M⁻¹
same,Binding constant for sugar chain No. 012,[1]; sugar chain having no fucose,<1000 M⁻¹
same,Binding constant for sugar chain No. 013,[1]; sugar chain having no fucose,<1000 M⁻¹
same,Binding constant for sugar chain No. 014,[1]; sugar chain having no fucose,<1000 M⁻¹
same,Binding constant for sugar chain No. 101,[1]; sugar chain having no fucose,<1000 M⁻¹
same,Binding constant for sugar chain No. 103,[1]; sugar chain having no fucose,<1000 M⁻¹
same,Binding constant for sugar chain No. 104,[1]; sugar chain having no fucose,<1000 M⁻¹
same,Binding constant for sugar chain No. 105,[1]; sugar chain having no fucose,<1000 M⁻¹
same,Binding constant for sugar chain No. 107,[1]; sugar chain having no fucose,<1000 M⁻¹
same,Binding constant for sugar chain No. 108,[1]; sugar chain having no fucose,<1000 M⁻¹
same,Binding constant for sugar chain No. 301,[1]; sugar chain having no fucose,<1000 M⁻¹
same,Binding constant for sugar chain No. 304,[1]; sugar chain having no fucose,<1000 M⁻¹
same,Binding constant for sugar chain No. 305,[1]; sugar chain having no fucose,<1000 M⁻¹
same,Binding constant for sugar chain No. 307,[1]; sugar chain having no fucose,<1000 M⁻¹
same,Binding constant for sugar chain No. 308,[1]; sugar chain having no fucose,<1000 M⁻¹
same,Binding constant for sugar chain No. 313,[1]; sugar chain having no fucose,<1000 M⁻¹
same,Binding constant for sugar chain No. 314,[1]; sugar chain having no fucose,<1000 M⁻¹
same,Binding constant for sugar chain No. 323,[1]; sugar chain having no fucose,<1000 M⁻¹
same,Binding constant for sugar chain No. 501,[1]; sugar chain having no fucose,<1000 M⁻¹
same,Binding constant for sugar chain No. 502,[1]; sugar chain having no fucose,<1000 M⁻¹
same,Binding constant for sugar chain No. 503,[1]; sugar chain having no fucose,<1000 M⁻¹
same,Binding constant for sugar chain No. 504,[1]; sugar chain having no fucose,<1000 M⁻¹
same,Binding constant for sugar chain No. 701,[1]; sugar chain having no fucose,<1000 M⁻¹
same,Binding constant for sugar chain No. 702,[1]; sugar chain having no fucose,<1000 M⁻¹
same,Binding constant for sugar chain No. 703,[1]; sugar chain having no fucose,<1000 M⁻¹
same,Binding constant for sugar chain No. 704,[1]; sugar chain having no fucose,<1000 M⁻¹
same,Binding constant for sugar chain No. 705,[1]; sugar chain having no fucose,<1000 M⁻¹
same,Binding constant for sugar chain No. 706,[1]; sugar chain having no fucose,<1000 M⁻¹
same,Binding constant for sugar chain No. 707,[1]; sugar chain having no fucose,<1000 M⁻¹
same,Binding constant for sugar chain No. 708,[1]; sugar chain having no fucose,<1000 M⁻¹
same,Binding constant for sugar chain No. 709,[1]; sugar chain having no fucose,<1000 M⁻¹
same,Binding constant for sugar chain No. 710,[1]; sugar chain having no fucose,<1000 M⁻¹
same,Binding constant for sugar chain No. 711,[1]; sugar chain having no fucose,<1000 M⁻¹
same,Binding constant for sugar chain No. 712,[1]; sugar chain having no fucose,<1000 M⁻¹
same,Binding constant for sugar chain No. 713,[1]; sugar chain having no fucose,<1000 M⁻¹
same,Binding constant for sugar chain No. 715,[1]; sugar chain having no fucose,<1000 M⁻¹
same,Binding constant for sugar chain No. 716,[1]; sugar chain having no fucose,<1000 M⁻¹
same,Binding constant for sugar chain No. 717,[1]; sugar chain having no fucose,<1000 M⁻¹
same,Binding constant for sugar chain No. 724,[1]; sugar chain having no fucose,<1000 M⁻¹
same,Binding constant for sugar chain No. 725,[1]; sugar chain having no fucose,<1000 M⁻¹
same,Binding constant for sugar chain No. 732,[1]; sugar chain having no fucose,<1000 M⁻¹
same,Binding constant for sugar chain No. 733,[1]; sugar chain having no fucose,<1000 M⁻¹
same,Binding constant for sugar chain No. 734,[1]; sugar chain having no fucose,<1000 M⁻¹
same,Binding constant for sugar chain No. 735,[1]; sugar chain having no fucose,<1000 M⁻¹
same,Binding constant for sugar chain No. 736,[1]; sugar chain having no fucose,<1000 M⁻¹
same,Binding constant for sugar chain No. 737,[1]; sugar chain having no fucose,<1000 M⁻¹
same,Binding constant for sugar chain No. 738,[1]; sugar chain having no fucose,<1000 M⁻¹
same,Binding constant for sugar chain No. 901,[1]; sugar chain having no fucose,<1000 M⁻¹
same,Binding constant for sugar chain No. 902,[1]; sugar chain having no fucose,<1000 M⁻¹
same,Binding constant for sugar chain No. 903,[1]; sugar chain having no fucose,<1000 M⁻¹
same,Binding constant for sugar chain No. 905,[1]; sugar chain having no fucose,<1000 M⁻¹
same,Binding constant for sugar chain No. 906,[1]; sugar chain having no fucose,<1000 M⁻¹
same,Binding constant for sugar chain No. 907,[1]; sugar chain having no fucose,<1000 M⁻¹
same,Binding constant for sugar chain No. 015,[1]; sugar chain having α1→6 fucose,500000 M⁻¹
same,Binding constant for sugar chain No. 201,[1]; sugar chain having α1→6 fucose,460000 M⁻¹
same,Binding constant for sugar chain No. 202,[1]; sugar chain having α1→6 fucose,400000 M⁻¹
same,Binding constant for sugar chain No. 203,[1]; sugar chain having α1→6 fucose,330000 M⁻¹
same,Binding constant for sugar chain No. 401,[1]; sugar chain having α1→6 fucose,350000 M⁻¹
same,Binding constant for sugar chain No. 402,[1]; sugar chain having α1→6 fucose,200000 M⁻¹
same,Binding constant for sugar chain No. 403,[1]; sugar chain having α1→6 fucose,340000 M⁻¹
same,Binding constant for sugar chain No. 404,[1]; sugar chain having α1→6 fucose,390000 M⁻¹
same,Binding constant for sugar chain No. 405,[1]; sugar chain having α1→6 fucose,320000 M⁻¹
same,Binding constant for sugar chain No. 406,[1]; sugar chain having α1→6 fucose,220000 M⁻¹
same,Binding constant for sugar chain No. 407,[1]; sugar chain having α1→6 fucose,280000 M⁻¹
same,Binding constant for sugar chain No. 410,[1]; sugar chain having α1→6 fucose,220000 M⁻¹
same,Binding constant for sugar chain No. 413,[1]; sugar chain having α1→6 fucose,280000 M⁻¹
same,Binding constant for sugar chain No. 418,[1]; sugar chain having α1→6 fucose,220000 M⁻¹
same,Binding constant for sugar chain No. 601,[1]; sugar chain having α1→6 fucose,240000 M⁻¹
same,Binding constant for sugar chain No. 602,[1]; sugar chain having α1→6 fucose,120000 M⁻¹
same,Binding constant for sugar chain No. 728,[2],<1000 M⁻¹
